Measurements reported in patent publication US20210087565A1, “ANTISENSE ANTIBIOTICS AND BACTERIAL SECRETION BASED DELIVERY SYSTEM TO ELIMINATE DRUG-RESISTANT BACTERIA” (priority 2018, published 2021).

Experiments:
NDM-1 KPN = test: PNA growth assay (optical density) on clinical isolate; type: cell-based, Klebsiella pneumoniae
Method: Bacterial Cell culture: The clinical isolates were obtained from the lab of Nancy Madinger at the University of Colorado Anschutz campus. Clinical isolates were grown in Cation Adjusted Mueller Hinton broth (CAMHB) (Becton, Dickinson and Company 212322) at 37° C. with 225 rpm shaking or on solid CAMHB with 1.5% agar at 37° C. Clinical isolates were maintained as freezer stocks in 90% CAMHB, 10% glycerol at −80° C. Freezer stocks were streaked out onto solid CAMHB and incubated for 16 h to produce single colonies prior to experiments. For each biological replicate, a single colony was picked from solid media and grown for 16 h in liquid CAMHB prior to experiments. Non-clinical isolates, such as E. coli MG1655 (ATCC700926) and Salmonella entorica serovar typhimurium SL1344, were cultured in liquid 2% lysogeny broth (LB) or on 2% LB with 1.5% agar for solid plates. S. typhimurium cultures were supplemented with 30 μg/mL streptomycin and SL1344 strains containing plasmids pFPV (SL1344-mCherry) or pRG1 modified with a lacIq promoter (SL1344-Holin) were supplemented with 100 μg/mL ampicillin. Freezer stocks were stored in 60% LB broth, 40% glycerol at −80° C. Freezer stocks were streaked out onto solid LB and incubated for 16 h to produce single colonies before experiments. For biological replicates, single colonies were started in liquid LB and grown for 16 hours prior to experiments. E. coli MG1655 PNA growth experiments were carried out in M9 media (1×M9 minimal media salts solution (MP Biomedicals), 2.0 mM MgSO4, and 0.1 mM CaCl2 in sterile water) with 0.4% glucose.
PNA growth assay: Biological replicates were diluted 1:10,000 into treatment condition in 384-well plates and measured for 24 h in a Tecan GENios at 562 nm with a bandwidth of 35 nm. Media absorbance blanks were subtracted from data prior to analysis. Normalized optical density (OD) data is shown normalized to the time point where the “no treatment” growth curves reached saturation phase which varied across biological replicates.

[1] = system: SL1344 infection of MC3T3-E1 osteoblast precursor cells; test: Salmonella infection of osteoblast precursor cells, T3SS-PNA treatment; type: cell-based, Salmonella enterica serovar typhimurium; conditions: 10 μM, multiplicity of infection of 30, 18 hours
Method: FIG. 11. […] Osteoblast precursor cells were grown for 24 hours on tissue culture treated 96-well plates prior to infection with SL1344 at a multiplicity of infection of 30. (A) The antisense inhibitor α-rpsD was added at 10 μM either without infection (No Treatment), after infection (Naked), or during infection (T3SS Transport). (B) After treatment for 18 hours the infection was imaged in brightfield and GFP channel. GFP expression corresponds to an intracellular infection with red arrows indicating hard to see GFP expression.
Osteoblast Precursor Cell Culture: MC3T3-E1 osteoblast precursor cells were stored in liquid nitrogen in growth media supplemented with %10 dimethyl sulfoxide (DMSO, Sigma). Osteoblasts were recovered from freezer stocks and cultured in growth media consisting of α-Minimum Essential Media (α-MEM, Gibco) supplemented with 10% Fetal Bovine Serum (FBS, Advanced, Atlanta Biologics), and 50 units/mL Penicillin-Streptomycin (P/S, Fisher Scientific) at 37° C., 5% CO2, and controlled humidity. For biological replicates a freezer stock, at passage 9, was split three ways and each replicate continuously passaged as individual biological replicates at 80% confluency using 0.25% trypsin (HyClone). […]

For “α-rpsD: 12-mer antisense PNA AGAAAATGGCAA (SEQ ID NO. 19) targeting rpsD, conjugated to (KFF)3K cell penetrating peptide via AEEA-linker (all peptide nucleic acid (PNA); (KFF)3K cell-penetrating peptide attached via AEEA linker)”, the “monotherapy effect (in words)” value (NDM-1 KPN; 10 μM) was “partial monotherapy effect”, the growth inhibition (NDM-1 KPN; 10 μM PNA, optical density vs no treatment at 16 hours) was 65±7.1% and the “Salmonella infection of osteoblast cells (in words)” value [1] was “eliminates Salmonella infection”.
